# From BindingDB's records for doi:10.1016/j.bmcl.2004.01.093 (University of California Irvine, 2004)
# Molecular target: Protein phosphatase 1 catalytic subunit (Oryctolagus cuniculus)
# Assay: Inhibitory activity against protein phosphatase-1 from rabbit skeletal muscle
row,SMILES,IC50
1,"CC(=O)NC[C@@]12C=C[C@@H](O1)C1C(=O)OC(=O)[C@H]12 (stereo partly drawn) [N-((1S,2R,7R)-3,5-Dioxo-4,10-dioxa-tricyclo[5.2.1.0*2,6*]dec-8-en-1-ylmethyl)-acetamide]",> 100 µM
2,"CC(=O)NC[C@@]12CC[C@@H](O1)C1C(=O)OC(=O)[C@H]12 (stereo partly drawn) [N-((1S,2R,7R)-3,5-Dioxo-4,10-dioxa-tricyclo[5.2.1.0*2,6*]dec-1-ylmethyl)-acetamide]",> 100 µM
3,"COC(=O)c1cccc(NC(=O)C2C(C(=O)O)[C@@H]3C=C[C@H]2O3)c1 (stereo partly drawn) [(1S,4R)-3-(3-Methoxycarbonyl-phenylcarbamoyl)-7-oxa-bicyclo[2.2.1]hept-5-ene-2-carboxylic acid]",60 µM
4,CCOC(=O)c1ccc(NC(=O)C2C(C(=O)O)[C@@H]3C=C[C@H]2O3)cc1 (stereo partly specified),76 µM
5,"N#CC[C@]12C=C[C@H](O1)[C@@H]1C(=O)OC(=O)C12 (stereo partly drawn) [((1R,6R,7S)-3,5-Dioxo-4,10-dioxa-tricyclo[5.2.1.0*2,6*]dec-8-en-1-yl)-acetonitrile]",> 100 µM
6,"CNC(=O)C1C(C(=O)O)[C@@H]2C=C[C@H]1O2 (stereo partly drawn) [(1S,4R)-3-Methylcarbamoyl-7-oxa-bicyclo[2.2.1]hept-5-ene-2-carboxylatemethyl-ammonium;]",> 100 µM
